# Marks after values point to notes of the source that are not given here.
# Legend:
# [1] = system: J-774 macrophages; assay: Cholesterol efflux from J-774 macrophages by serum of treated E^0 mice; conditions: drinking water 0.04 mM (8 mg/Kg/day), 14 weeks
# Experimental: J-774 macrophages were incubated with [^3H]-labeled cholesterol for 1.5 h at 37° C. followed by cell wash in ice-cold PBS (3×) and further incubation in the presence of 15 μL mice serum for 3 h at 37° C. Cellular and medium [^3H]-labels were quantitated and HDL-mediated cholesterol efflux was calculated as the ratio of [^3H]-label in the medium/[^3H]-label in the medium+[^3H]-label in cells.
# [2] = system: mouse peritoneal macrophages (MPM); assay: Cholesterol synthesis by MPM of treated E^0 mice; conditions: drinking water 0.04 mM (8 mg/Kg/day), 14 weeks
# Experimental: Cellular cholesterol biosynthesis was assayed after incubation of macrophages (3×10^6 well^−1) overnight with DMEM containing 2% BSA followed by additional 3 h of incubation at 37° C. with [^3H]-acetate (3.3 μCi/ml). Cellular lipids were extracted with hexane:isopropanol (3:2, v:v), and the upper phase was dried under nitrogen. The lipids were then separated by TLC using an eluent of hexane:ether:acetic acid (130:30:1.5, v:v:v). Unesterified cholesterol spots were visualized by iodine vapor (by using standard for identification) and counted with β-counter.
# [3] = system: mouse peritoneal macrophages (MPM); assay: Cholesterol efflux from MPM of treated E^0 mice; conditions: drinking water 0.04 mM (8 mg/Kg/day), 14 weeks
# Experimental: Mouse peritoneal macrophages were incubated with [^3H]-labeled cholesterol for 1 h at 37° C. followed by cell wash in ice-cold PBS (3×) and further incubation in the absence or presence of 100 μg of human HDL protein/ml for 3 h at 37° C. Cellular and medium [^3H]-labels were quantitated and HDL-mediated cholesterol efflux was calculated as the ratio of [^3H]-label in the medium/[^3H]-label in the medium+[^3H]-label in cells.
# [4] = system: Apolipoprotein E deficient mice (E^0 mice); assay: Histopathology of aortic atherosclerosis lesions in E^0 mice; assay type: in vivo; conditions: oral, drinking water 0.04 mM (0.2 mg per mouse per day), 10 weeks; for Decrease in average lesion area relative to the control group: 1-Fe: mean of the four mice with lesions
# Description: At the end of the experiment, the mice were sacrificed and each heart and entire aorta were rapidly dissected out from each mouse and immersion-fixed in 3% glutaraldehyde in 0.1 mol/L sodium cacodylate buffer with 0.01% calcium chloride, pH 7.4, at room temperature. The first 4 mm of the aortic arch was stained with osmium tetroxide, which colors all the lipid components a dark brown-black color thus enabling delineation of the lesion with greater accuracy. The blocks were embedded in epon resin and thin transverse sections were cut to allow greater resolution of the lesion details. The area covered by the lesion was determined by image analysis (Coleman et al., 2006).
# Two of the mice receiving that treatment did actually not develop atherosclerotic lesions at all and the average lesion area for the other four mice was 60% smaller than that obtained for the control mice. These observations are much better than those obtained by other methods, including E^0 mice that were treated by natural anti-oxidants (48% reduction when consuming red wine (Hayek et al., 1997; Fuhrman et al., 1995) and 44% for pomegranate juice (Aviram et al., 2000)) or those that were intraperitoneally-treated with different synthetic catalysts for decomposition of reactive oxygen species.
# [5] = Nitration of L-tyrosine by peroxynitrite; conditions: pH 7.4, T=25°C, yield relative to [PN]0; PN alone 11%
# Experimental: e) Nitration of L-tyrosine: Peroxynitrite (0.44 μmol) was reacted with 0.16 μmol of L-tyrosine in 2 mL phosphate buffer solution, pH 7.4 at T=24° C. for 5 min. The concentration of such formed nitrotyrosine was estimated by recording the 438 nm absorbance (ε=4200 M^−1cm^−1) of basified solutions (via the addition of 0.2 ml of 7.8 M NaOH).
# (§1) These particular molecules were specifically chosen because they represent targets of hydroxyl radical, nitrogen dioxide, and of oxygen transfer reagents. In addition, their reaction products are easily identified and quantified by established methods.
# [6] = Oxidation of tetramethylene sulfoxide to sulfolane by peroxynitrite
# Experimental: The sulfolane was extracted into diethyl ether after 10 min of stirring and quantified by GC analysis. The same experiment was done at pH 12.7, with a reaction time of 4 hr.
# as §1
# [7] = Nitration of fluorescein by peroxynitrite; conditions: pH 7.4, T=25°C, relative to [fluorescein]0; PN alone 30%
# Experimental: The changes in fluorescein absorbance were measured on the UV/vis spectrophotometer. The yield of nitration was determined by converting absorbance to changes in concentration of fluorescein and nitrated fluorescein, using pre-determined extinction coefficients. For increased accuracy, the three wavelengths in which the largest changes in absorbance occur were used. The yields were calculated based on the initial substrate concentration.
# as §1
# [8] = pH 7.4, T=25°C, yield relative to [PN]0, PN alone 3.14%
# [9] = pH 12.7, yield relative to [PN]0, PN alone 83%
Compound,Increase in serum-mediated cholesterol efflux from J-774 macrophages [1] [%],Reduction of cholesterol synthesis by MPMs [2] [%],Decrease in cholesterol efflux from the E^0 MPM [3] [%],Mice (of six) that did not develop atherosclerotic lesions at all [4],Decrease in average lesion area relative to the control group [4] [%],Yield of L-nitrotyrosine from L-tyrosine [5] [%],"Yield of sulfolane from tetramethylenesulfoxide [6, 8]","Yield of sulfolane from tetramethylenesulfoxide [6, 9]",Yield of nitrofluorescein from fluorescein [7]
"O=S(=O)(O)c1cc2[n]3c1C(c1c(F)c(F)c(F)c(F)c1F)=C1C=CC4=[N+]1[Fe-]31[n]3c(cc(S(=O)(=O)O)c3-2)C(c2c(F)c(F)c(F)c(F)c2F)=c2ccc([n]21)=C4c1c(F)c(F)c(F)c(F)c1F (centres unmarked) [1-Fe, 5,10,15-tris(pentafluorophenyl)-2,17-bis(sulfonic acid)-corrolato iron(III)]",7,76,20,Two and two,60,11,0.1%^,0.4%^(b),4%^(a)
"O=S(=O)(O)c1cc2[n]3c1C(c1c(F)c(F)c(F)c(F)c1F)=C1C=CC4=[N+]1[Mn-]31[n]3c(cc(S(=O)(=O)O)c3-2)C(c2c(F)c(F)c(F)c(F)c2F)=c2ccc([n]21)=C4c1c(F)c(F)c(F)c(F)c1F (centres unmarked) [1-Mn, 5,10,15-tris(pentafluorophenyl)-2,17-bis(sulfonic acid)-corrolato manganese(III)]",,,,,17,0,0.18%,0.6%^(b),0%

# — US8791099B2, “Transition metal complexes of corroles for preventing cardiovascular diseases or disorders” (Technion Research and Development Foundation Ltd., priority 2007, dated 2014)
